# Assay results from PubChem BioAssay (NCI).
#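 Growth conditions: 96-well plates. Treatment: test compound, 48 hours, 5 concentrations. Analysis: linear interpolation between bracketing concentrations; unreached endpoints set to highest concentration. Definition used: TGI = concentration required for complete inhibition of growth.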
# Assays:
# Assay in all cases: NCI-60 cell line screen, 48 h
# M19-MEL melanoma = test system: M19-MEL melanoma
# A549 NSCLC = test system: A549 NSCLC
# SNB-19 CNS = test system: SNB-19 CNS
# UACC-257 melanoma = test system: UACC-257 melanoma
# NCI-H522 lung = test system: NCI-H522 lung
# HOP-18 NSCLC = test system: HOP-18 NSCLC
# SK-MEL-5 melanoma = test system: SK-MEL-5 melanoma
# RXF-631 renal = test system: RXF-631 renal
# SF-295 CNS = test system: SF-295 CNS
# K-562 leukemia = test system: K-562 leukemia
# HCT-15 colon = test system: HCT-15 colon
# HCT-116 colon = test system: HCT-116 colon
# RPMI-8226 leukemia = test system: RPMI-8226 leukemia
# HT29 colon = test system: HT29 colon
# 786-0 renal = test system: 786-0 renal
# SW-620 colon = test system: SW-620 colon
# COLO 205 colon = test system: COLO 205 colon
# SK-OV-3 ovarian = test system: SK-OV-3 ovarian
# SK-MEL-28 melanoma = test system: SK-MEL-28 melanoma
# SNB-75 CNS = test system: SNB-75 CNS
# ACHN renal = test system: ACHN renal
# KM20L2 colon = test system: KM20L2 colon
# NCI-H226 lung = test system: NCI-H226 lung
# DMS 273 small cell lung = test system: DMS 273 small cell lung
# HL-60(TB) leukemia = test system: HL-60(TB) leukemia
# UACC-62 melanoma = test system: UACC-62 melanoma
# A498 renal = test system: A498 renal
# SNB-78 CNS = test system: SNB-78 CNS
# OVCAR-3 ovarian = test system: OVCAR-3 ovarian
# MALME-3M melanoma = test system: MALME-3M melanoma
# DLD-1 colon = test system: DLD-1 colon
# HCC-2998 colon = test system: HCC-2998 colon
# SN12C renal = test system: SN12C renal
# SF-268 CNS = test system: SF-268 CNS
# U251 CNS = test system: U251 CNS
# M14 melanoma = test system: M14 melanoma
# CAKI-1 renal = test system: CAKI-1 renal
# HOP-92 NSCLC = test system: HOP-92 NSCLC
# DMS 114 small cell lung = test system: DMS 114 small cell lung
# OVCAR-4 ovarian = test system: OVCAR-4 ovarian
# IGROV1 ovarian = test system: IGROV1 ovarian
# HOP-62 NSCLC = test system: HOP-62 NSCLC
# LXFL 529 NSCLC = test system: LXFL 529 NSCLC
# OVCAR-8 ovarian = test system: OVCAR-8 ovarian
# NCI-H460 lung = test system: NCI-H460 lung
# TK-10 renal = test system: TK-10 renal
# EKVX NSCLC = test system: EKVX NSCLC
# NCI-H23 lung = test system: NCI-H23 lung
# SF-539 CNS = test system: SF-539 CNS
# MOLT-4 leukemia = test system: MOLT-4 leukemia
# OVCAR-5 ovarian = test system: OVCAR-5 ovarian
# CCRF-CEM leukemia = test system: CCRF-CEM leukemia
# KM12 colon = test system: KM12 colon
# UO-31 renal = test system: UO-31 renal
# SK-MEL-2 melanoma = test system: SK-MEL-2 melanoma
# RXF 393 renal = test system: RXF 393 renal
# LOX IMVI melanoma = test system: LOX IMVI melanoma
# SR leukemia = test system: SR leukemia
smiles,measurement,setting,value
O=C(CCc1n[nH]c(=S)o1)Nc1cc(Cl)c(Cl)cc1Cl,TGI,M19-MEL melanoma,> 100 µM
same,TGI,A549 NSCLC,> 100 µM
same,TGI,SNB-19 CNS,> 100 µM
same,TGI,UACC-257 melanoma,> 100 µM
same,TGI,NCI-H522 lung,> 100 µM
same,TGI,HOP-18 NSCLC,> 100 µM
same,TGI,SK-MEL-5 melanoma,> 100 µM
same,TGI,RXF-631 renal,> 100 µM
same,TGI,SF-295 CNS,> 100 µM
same,TGI,K-562 leukemia,49 µM
same,TGI,HCT-15 colon,49.9 µM
same,TGI,HCT-116 colon,30 µM
same,TGI,RPMI-8226 leukemia,50.8 µM
same,TGI,HT29 colon,> 100 µM
same,TGI,786-0 renal,63.6 µM
same,TGI,SW-620 colon,31.4 µM
same,TGI,COLO 205 colon,> 100 µM
same,TGI,SK-OV-3 ovarian,> 100 µM
same,TGI,SK-MEL-28 melanoma,> 100 µM
same,TGI,SNB-75 CNS,> 100 µM
same,TGI,ACHN renal,> 100 µM
same,TGI,KM20L2 colon,> 100 µM
same,TGI,NCI-H226 lung,> 100 µM
same,TGI,DMS 273 small cell lung,72.5 µM
same,TGI,HL-60(TB) leukemia,> 100 µM
same,TGI,UACC-62 melanoma,> 100 µM
same,TGI,A498 renal,91.8 µM
same,TGI,SNB-78 CNS,> 100 µM
same,TGI,OVCAR-3 ovarian,> 100 µM
same,TGI,MALME-3M melanoma,> 100 µM
same,TGI,DLD-1 colon,86.3 µM
same,TGI,HCC-2998 colon,> 100 µM
same,TGI,SN12C renal,> 100 µM
same,TGI,SF-268 CNS,> 100 µM
same,TGI,U251 CNS,> 100 µM
same,TGI,M14 melanoma,> 100 µM
same,TGI,CAKI-1 renal,> 100 µM
same,TGI,HOP-92 NSCLC,> 100 µM
same,TGI,DMS 114 small cell lung,> 100 µM
same,TGI,OVCAR-4 ovarian,> 100 µM
same,TGI,IGROV1 ovarian,> 100 µM
same,TGI,HOP-62 NSCLC,> 100 µM
same,TGI,LXFL 529 NSCLC,> 100 µM
same,TGI,OVCAR-8 ovarian,> 100 µM
same,TGI,NCI-H460 lung,> 100 µM
same,TGI,TK-10 renal,> 100 µM
same,TGI,EKVX NSCLC,> 100 µM
same,TGI,NCI-H23 lung,> 100 µM
same,TGI,SF-539 CNS,> 100 µM
same,TGI,MOLT-4 leukemia,> 100 µM
same,TGI,OVCAR-5 ovarian,> 100 µM
same,TGI,CCRF-CEM leukemia,> 100 µM
same,TGI,KM12 colon,> 100 µM
same,TGI,UO-31 renal,> 100 µM
CC1CCCP(=O)(c2ccccc2)CC1 (stereo not drawn),TGI,M19-MEL melanoma,> 100 µM
same,TGI,SK-MEL-2 melanoma,> 100 µM
same,TGI,A549 NSCLC,> 100 µM
same,TGI,SNB-19 CNS,> 100 µM
same,TGI,UACC-257 melanoma,> 100 µM
same,TGI,HOP-18 NSCLC,0.958 µM
same,TGI,SK-MEL-5 melanoma,> 100 µM
same,TGI,RXF-631 renal,> 100 µM
same,TGI,SF-295 CNS,> 100 µM
same,TGI,K-562 leukemia,> 100 µM
same,TGI,HCT-15 colon,> 100 µM
same,TGI,RXF 393 renal,> 100 µM
same,TGI,RPMI-8226 leukemia,> 100 µM
same,TGI,HT29 colon,> 100 µM
same,TGI,786-0 renal,> 100 µM
same,TGI,SW-620 colon,> 100 µM
same,TGI,COLO 205 colon,> 100 µM
same,TGI,SK-OV-3 ovarian,> 100 µM
same,TGI,SK-MEL-28 melanoma,> 100 µM
same,TGI,SNB-75 CNS,> 100 µM
same,TGI,ACHN renal,> 100 µM
same,TGI,KM20L2 colon,> 100 µM
same,TGI,DMS 273 small cell lung,> 100 µM
same,TGI,UACC-62 melanoma,> 100 µM
same,TGI,A498 renal,> 100 µM
same,TGI,SNB-78 CNS,> 100 µM
same,TGI,OVCAR-3 ovarian,> 100 µM
same,TGI,MALME-3M melanoma,> 100 µM
same,TGI,DLD-1 colon,> 100 µM
same,TGI,HCC-2998 colon,> 100 µM
same,TGI,SN12C renal,> 100 µM
same,TGI,SF-268 CNS,> 100 µM
same,TGI,U251 CNS,> 100 µM
same,TGI,M14 melanoma,> 100 µM
same,TGI,CAKI-1 renal,> 100 µM
same,TGI,DMS 114 small cell lung,> 100 µM
same,TGI,OVCAR-4 ovarian,> 100 µM
same,TGI,IGROV1 ovarian,> 100 µM
same,TGI,HOP-62 NSCLC,> 100 µM
same,TGI,LOX IMVI melanoma,> 100 µM
same,TGI,LXFL 529 NSCLC,> 100 µM
same,TGI,OVCAR-8 ovarian,> 100 µM
same,TGI,NCI-H460 lung,> 100 µM
same,TGI,TK-10 renal,> 100 µM
same,TGI,EKVX NSCLC,> 100 µM
same,TGI,NCI-H23 lung,> 100 µM
same,TGI,SF-539 CNS,> 100 µM
same,TGI,MOLT-4 leukemia,> 100 µM
same,TGI,OVCAR-5 ovarian,> 100 µM
same,TGI,CCRF-CEM leukemia,> 100 µM
same,TGI,KM12 colon,> 100 µM
same,TGI,UO-31 renal,> 100 µM
C/C(=N\NC(C)(C)C)c1sc(-c2nc(C)c(/C(C)=N/NC(C)(C)C)s2)nc1C,TGI,M19-MEL melanoma,> 100 µM
same,TGI,A549 NSCLC,> 100 µM
same,TGI,SNB-19 CNS,> 100 µM
same,TGI,UACC-257 melanoma,> 100 µM
same,TGI,NCI-H522 lung,> 100 µM
same,TGI,HOP-18 NSCLC,> 100 µM
same,TGI,SK-MEL-5 melanoma,> 100 µM
same,TGI,RXF-631 renal,> 100 µM
same,TGI,SF-295 CNS,> 100 µM
same,TGI,K-562 leukemia,> 100 µM
same,TGI,HCT-15 colon,> 100 µM
same,TGI,HCT-116 colon,> 100 µM
same,TGI,RXF 393 renal,> 100 µM
same,TGI,RPMI-8226 leukemia,> 100 µM
same,TGI,HT29 colon,> 100 µM
same,TGI,786-0 renal,> 100 µM
same,TGI,SW-620 colon,> 100 µM
same,TGI,COLO 205 colon,> 100 µM
same,TGI,SK-OV-3 ovarian,> 100 µM
same,TGI,SK-MEL-28 melanoma,> 100 µM
same,TGI,SNB-75 CNS,> 100 µM
same,TGI,ACHN renal,> 100 µM
same,TGI,KM20L2 colon,> 100 µM
same,TGI,NCI-H226 lung,> 100 µM
same,TGI,DMS 273 small cell lung,> 100 µM
same,TGI,HL-60(TB) leukemia,> 100 µM
same,TGI,UACC-62 melanoma,> 100 µM
same,TGI,A498 renal,> 100 µM
same,TGI,SNB-78 CNS,> 100 µM
same,TGI,OVCAR-3 ovarian,> 100 µM
same,TGI,MALME-3M melanoma,> 100 µM
same,TGI,DLD-1 colon,> 100 µM
same,TGI,HCC-2998 colon,> 100 µM
same,TGI,SN12C renal,> 100 µM
same,TGI,SF-268 CNS,> 100 µM
same,TGI,U251 CNS,> 100 µM
same,TGI,M14 melanoma,> 100 µM
same,TGI,CAKI-1 renal,> 100 µM
same,TGI,HOP-92 NSCLC,> 100 µM
same,TGI,DMS 114 small cell lung,> 100 µM
same,TGI,OVCAR-4 ovarian,> 100 µM
same,TGI,IGROV1 ovarian,> 100 µM
same,TGI,SR leukemia,> 100 µM
same,TGI,LOX IMVI melanoma,> 100 µM
same,TGI,LXFL 529 NSCLC,> 100 µM
same,TGI,OVCAR-8 ovarian,> 100 µM
same,TGI,EKVX NSCLC,> 100 µM
same,TGI,NCI-H23 lung,> 100 µM
same,TGI,SF-539 CNS,> 100 µM
same,TGI,MOLT-4 leukemia,> 100 µM
same,TGI,CCRF-CEM leukemia,> 100 µM
same,TGI,UO-31 renal,> 100 µM
